The text below walks through data of PMC7017082, “Tivantinib, A c-Met Inhibitor in Clinical Trials, Is Susceptible to ABCG2-Mediated Drug Resistance” (Cancers, 2020).

In the assay the target is T1, ABCG2 (ATP-binding cassette super-family G member 2, BCRP) (Homo sapiens, UniProt Q9UNQ0).
T1 construct: ABCG2 in insect cell membrane vesicles
T1 sequence (Q9UNQ0 1-655): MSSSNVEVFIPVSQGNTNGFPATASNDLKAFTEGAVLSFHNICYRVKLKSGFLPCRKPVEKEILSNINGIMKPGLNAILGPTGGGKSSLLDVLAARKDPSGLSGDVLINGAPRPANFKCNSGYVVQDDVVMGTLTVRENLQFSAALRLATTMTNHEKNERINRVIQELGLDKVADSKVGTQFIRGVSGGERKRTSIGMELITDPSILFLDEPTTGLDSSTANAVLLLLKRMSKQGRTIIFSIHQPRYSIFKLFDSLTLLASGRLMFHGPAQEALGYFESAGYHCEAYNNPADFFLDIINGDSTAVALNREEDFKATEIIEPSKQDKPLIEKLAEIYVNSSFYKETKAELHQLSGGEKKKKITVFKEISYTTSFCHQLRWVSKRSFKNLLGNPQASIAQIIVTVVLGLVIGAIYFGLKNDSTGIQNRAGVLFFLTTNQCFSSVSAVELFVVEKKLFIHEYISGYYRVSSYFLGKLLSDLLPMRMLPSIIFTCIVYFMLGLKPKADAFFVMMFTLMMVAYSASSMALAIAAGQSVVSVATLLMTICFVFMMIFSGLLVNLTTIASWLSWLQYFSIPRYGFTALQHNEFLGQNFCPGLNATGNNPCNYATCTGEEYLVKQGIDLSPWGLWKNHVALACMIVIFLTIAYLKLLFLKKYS
As to the kind of experiment: biochemical.

By EC50 is commonly meant the concentration that produces a half-maximal response. The low end stands for higher potency in that assay, the high end for lower potency in that assay. For the compound `O=C1NC(=O)[C@@H](c2cn3c4c(cccc24)CCC3)[C@@H]1c1c[nH]c2ccccc12` [Tivantinib], the response was half-maximal at 6.76 µM (EC50).
